For test [1], the system named is T1, CreSAMT1.
T1 construct: His-tagged (pET6xHN), E. coli BL21(DE3), Ni-IDA purified; tag cleavage not mentioned
Nature of the test: GC-MS of methyl ester product, Michaelis-Menten fit. The test is classed as biochemical, Citrus reticulata. The settings on record: co-substrate SAM, Tris-HCl, KCl, pH 7.0, 35 °C. From the text: GC-MS of methyl ester product, Michaelis-Menten fit on CreSAMT1

Test [2] deals with T2, CreSAMT2.
T2 construct: His-tagged (pET6xHN), E. coli BL21(DE3), Ni-IDA purified; tag cleavage not mentioned
Described as above. The test is classed as biochemical, Citrus reticulata. The conditions noted are these: co-substrate SAM, Tris-HCl, KCl, pH 7.0, 25 °C. From the text: GC-MS of methyl ester product, Michaelis-Menten fit on CreSAMT2

Results on 4 molecules are retold here after PMC12968138, “CreSAMT1 is mainly responsible for the biosynthesis of characteristic aroma compound dimethyl anthranilate in Citrus reticulata ‘Chachiensis’” (Horticulture Research, 2025).

In the case of `O=C(O)c1ccccc1` [BA, benzoic acid], the Km (usually the concentration of substrate that gives half-maximal velocity) in test [1] was 61.9 ± 30.7 µM; in test [2], 25 ± 6.89 µM.

`Nc1ccccc1C(=O)O` [AA, anthranilate]: the Km in test [1] (sodium salt used) is 4.82 ± 1.53 µM; in test [2] (sodium salt used), 18 ± 1.9 µM.

With `CNc1ccccc1C(=O)O` [NMA, N-methyl-2-aminobenzoic acid], the Km is 164 ± 98.4 µM in test [1] and 128 ± 58.9 µM in test [2].

On to `O=C(O)c1ccccc1O` [SA, salicylic acid], for which the Km in test [1] is 101 ± 33.5 µM; in test [2] it was 53 ± 11.2 µM.
